Laboratory results from patent publication US10702506B2, “Small molecule inhibitors of pendrin ion exchange and pharmaceutical compositions” (THE REGENTS OF THE UNIVERSITY OF CALIFORNIA, priority 2016, dated 2020).

Tests used:
pendrin = target: T1, pendrin (Homo sapiens, UniProt O43511); experiment: BCECF cytoplasmic pH assay of pendrin-mediated Cl−/HCO3− exchange in pendrin-expressing FRT cells; format: cell-based; set-up: expressed in transfected cells
T1 sequence (O43511 1-780): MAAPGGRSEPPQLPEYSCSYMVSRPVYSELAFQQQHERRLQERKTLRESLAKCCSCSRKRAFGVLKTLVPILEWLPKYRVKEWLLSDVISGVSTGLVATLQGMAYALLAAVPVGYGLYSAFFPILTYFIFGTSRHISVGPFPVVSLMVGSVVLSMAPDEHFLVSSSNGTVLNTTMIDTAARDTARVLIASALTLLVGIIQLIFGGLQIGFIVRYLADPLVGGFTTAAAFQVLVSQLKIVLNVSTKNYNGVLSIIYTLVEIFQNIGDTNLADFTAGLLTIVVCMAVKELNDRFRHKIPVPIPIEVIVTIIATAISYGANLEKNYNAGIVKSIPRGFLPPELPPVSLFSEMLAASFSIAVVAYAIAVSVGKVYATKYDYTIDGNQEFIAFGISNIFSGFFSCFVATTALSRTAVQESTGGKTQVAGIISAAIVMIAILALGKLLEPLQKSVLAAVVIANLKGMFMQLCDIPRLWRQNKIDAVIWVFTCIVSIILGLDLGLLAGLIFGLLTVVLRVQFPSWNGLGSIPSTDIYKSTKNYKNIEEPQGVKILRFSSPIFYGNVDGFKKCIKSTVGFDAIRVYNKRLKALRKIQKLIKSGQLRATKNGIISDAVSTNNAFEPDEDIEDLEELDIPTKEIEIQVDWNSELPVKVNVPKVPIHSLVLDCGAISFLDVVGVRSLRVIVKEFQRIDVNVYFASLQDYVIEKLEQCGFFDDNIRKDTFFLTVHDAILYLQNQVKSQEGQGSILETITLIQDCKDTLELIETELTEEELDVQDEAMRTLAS
Procedure: Cytoplasmic pH (pHi) was measured to assay pendrin-mediated Cl^−/HCO3^− exchange in pendrin-expressing FRT cells and primary cell cultures using the pH-sensitive fluorescent probe BCECF. Cells were loaded for 20 min using 10 μM BCECF-AM (Invitrogen, Carlsbad, Calif.) in HCO3^−-containing buffer (in mM: 120 NaCl, 5 KCl, 1 CaCl2), 1 MgSO4, 10 glucose, 5 Hepes, 25 NaHCO3; pH 7.4) at 27° C. in a tissue culture incubator. Cells were washed and transferred to the stage of a TE2000 microscope (Nikon, Melville, N.Y.) equipped with a C9100 EM-CCD (Hamamatsu, San Jose, Calif.), XCite light source (Excelitas, Waltham, Mass.), Nikon 20×N.A. 0.75 S Fluor objective, Uniblitz shutter (Vincent Associates, Rochester, N.Y.), and filters for BCECF fluorescence (Chroma, Bellows Fall, Vt.), where they were purged with 95% O2/5% CO2. […] BCECF pH-sensitive fluorescence (490 nm excitation, 535 nm emission) was acquired at 0.5 Hz, with control experiments confirming that BCECF pH-insensitive fluorescence was not altered during exchange protocols. In some experiments pHi changes in the absence of HCO3^− were measured using buffers in which NaCl or Na gluconate replaced NaHCO3^−. To relate BCECF fluorescence to pH, a calibration curve over the quasi-linear range of BCECF sensitivity (pH 6.6-7.7) was generated as described. […]

[1] = tested on: chronically furosemide-treated mice; experiment: Chronic furosemide treatment model in mice; format: in vivo; conditions: 10 mg/kg after 8 days furosemide 20 mg/kg twice a day, 3 h urine
Procedure: Because chronic loop diuretic treatment upregulates renal pendrin expression, which might potentiate the diuretic efficacy of pendrin inhibition, the action of PDSinh-C01 in a chronic furosemide treatment model.
In chronic studies, mice were injected with 20 mg/kg furosemide (ip) twice a day for 8 days and then administered PDSinh-C01 (10 mg/kg) or vehicle at the time of the final furosemide dose. Urine was collected for 3 h as described above.
After 8 days of furosemide treatment, PDSinh-C01 further potentiated the furosemide effect.

**Q.** For `Cn1nc(COc2cccc(F)c2)c2c1CCN(C(=O)Nc1ccc(Cl)cc1)C2` [PDSinh-A01], which “inhibition of cytoplasmic alkalinization (Cl−/HCO3− exchange)” value (pendrin; 25 μM) is on record?
**A.** strongly inhibited

**Q.** What about the IC50 (pendrin; Cl−/HCO3− exchange, read-out: concentration giving fifty percent inhibition of Cl−/HCO3− exchange) of the same compound?
**A.** ~2500 nM

**Q.** Which “increase in urine volume” value [1] does the source give for `Cc1n[nH]c(-c2cc(S(=O)(=O)NC3CCCc4ccccc43)c(C)s2)c1C` (stereo not drawn) [PDSinh-C01] here?
**A.** ~60%
